Measurements reported in ChEMBL document CHEMBL5726904, “Compounds, compositions, and methods” (2018).

Molecular target: Leucine-rich repeat serine/threonine-protein kinase 2 (Homo sapiens, UniProt Q5S007, G2019S)
Test: Biochemical Assay: Materials: LRRK2 G2019S enzyme Substrate (LRRKtide) ATP TR-FRET dilution buffer pLRRKtide antibody 384-well assay plate DMSOEnzyme Reaction Conditions 50 mM Tris pH 7.5, 10 mM MgCl2, 1 mM EGTA, 0.01% Brij-35, 2 mM DTT 5 nM LRRK2 134 μM ATP 60 minute reaction time 23° C. reaction temperature 10 μL total reaction volumeDetection Reaction Conditions 1× TR-FRET dilution buffer 10 mM EDTA 2 nM antibody 23° C. reaction temperature 10 μL total reaction volumeCompounds were prepared by initially diluting to 1 mM with DMSO. 35 μL of reference compound solution, 35 μL of test compound solution, and 35 μL HPE were successively added to the source plate (384-well assay plate, Labcyte). The plates were centrifuged at 2500 rpm for 1 minute and sealed in foil. POD was used to perform a 3.162 fold serial dilution and 100 nL of reference compound solution, test compound solution, HPE and ZPE were transferred to assay plates. The assay plate was centrifuged at 2500 rpm for 1 minute, and sealed with foil.To perform the enzyme reaction, 5 μL of LRRKtide substrate and kinase mixture in assay buffer was added to all wells of the assay plate. The plate was centrifuged to concentrate the mixture at the bottom of the wells. The assay plate was incubated at 23° C. for 20 minutes. […]

Sequence of Leucine-rich repeat serine/threonine-protein kinase 2 (Q5S007 whole entry G2019S): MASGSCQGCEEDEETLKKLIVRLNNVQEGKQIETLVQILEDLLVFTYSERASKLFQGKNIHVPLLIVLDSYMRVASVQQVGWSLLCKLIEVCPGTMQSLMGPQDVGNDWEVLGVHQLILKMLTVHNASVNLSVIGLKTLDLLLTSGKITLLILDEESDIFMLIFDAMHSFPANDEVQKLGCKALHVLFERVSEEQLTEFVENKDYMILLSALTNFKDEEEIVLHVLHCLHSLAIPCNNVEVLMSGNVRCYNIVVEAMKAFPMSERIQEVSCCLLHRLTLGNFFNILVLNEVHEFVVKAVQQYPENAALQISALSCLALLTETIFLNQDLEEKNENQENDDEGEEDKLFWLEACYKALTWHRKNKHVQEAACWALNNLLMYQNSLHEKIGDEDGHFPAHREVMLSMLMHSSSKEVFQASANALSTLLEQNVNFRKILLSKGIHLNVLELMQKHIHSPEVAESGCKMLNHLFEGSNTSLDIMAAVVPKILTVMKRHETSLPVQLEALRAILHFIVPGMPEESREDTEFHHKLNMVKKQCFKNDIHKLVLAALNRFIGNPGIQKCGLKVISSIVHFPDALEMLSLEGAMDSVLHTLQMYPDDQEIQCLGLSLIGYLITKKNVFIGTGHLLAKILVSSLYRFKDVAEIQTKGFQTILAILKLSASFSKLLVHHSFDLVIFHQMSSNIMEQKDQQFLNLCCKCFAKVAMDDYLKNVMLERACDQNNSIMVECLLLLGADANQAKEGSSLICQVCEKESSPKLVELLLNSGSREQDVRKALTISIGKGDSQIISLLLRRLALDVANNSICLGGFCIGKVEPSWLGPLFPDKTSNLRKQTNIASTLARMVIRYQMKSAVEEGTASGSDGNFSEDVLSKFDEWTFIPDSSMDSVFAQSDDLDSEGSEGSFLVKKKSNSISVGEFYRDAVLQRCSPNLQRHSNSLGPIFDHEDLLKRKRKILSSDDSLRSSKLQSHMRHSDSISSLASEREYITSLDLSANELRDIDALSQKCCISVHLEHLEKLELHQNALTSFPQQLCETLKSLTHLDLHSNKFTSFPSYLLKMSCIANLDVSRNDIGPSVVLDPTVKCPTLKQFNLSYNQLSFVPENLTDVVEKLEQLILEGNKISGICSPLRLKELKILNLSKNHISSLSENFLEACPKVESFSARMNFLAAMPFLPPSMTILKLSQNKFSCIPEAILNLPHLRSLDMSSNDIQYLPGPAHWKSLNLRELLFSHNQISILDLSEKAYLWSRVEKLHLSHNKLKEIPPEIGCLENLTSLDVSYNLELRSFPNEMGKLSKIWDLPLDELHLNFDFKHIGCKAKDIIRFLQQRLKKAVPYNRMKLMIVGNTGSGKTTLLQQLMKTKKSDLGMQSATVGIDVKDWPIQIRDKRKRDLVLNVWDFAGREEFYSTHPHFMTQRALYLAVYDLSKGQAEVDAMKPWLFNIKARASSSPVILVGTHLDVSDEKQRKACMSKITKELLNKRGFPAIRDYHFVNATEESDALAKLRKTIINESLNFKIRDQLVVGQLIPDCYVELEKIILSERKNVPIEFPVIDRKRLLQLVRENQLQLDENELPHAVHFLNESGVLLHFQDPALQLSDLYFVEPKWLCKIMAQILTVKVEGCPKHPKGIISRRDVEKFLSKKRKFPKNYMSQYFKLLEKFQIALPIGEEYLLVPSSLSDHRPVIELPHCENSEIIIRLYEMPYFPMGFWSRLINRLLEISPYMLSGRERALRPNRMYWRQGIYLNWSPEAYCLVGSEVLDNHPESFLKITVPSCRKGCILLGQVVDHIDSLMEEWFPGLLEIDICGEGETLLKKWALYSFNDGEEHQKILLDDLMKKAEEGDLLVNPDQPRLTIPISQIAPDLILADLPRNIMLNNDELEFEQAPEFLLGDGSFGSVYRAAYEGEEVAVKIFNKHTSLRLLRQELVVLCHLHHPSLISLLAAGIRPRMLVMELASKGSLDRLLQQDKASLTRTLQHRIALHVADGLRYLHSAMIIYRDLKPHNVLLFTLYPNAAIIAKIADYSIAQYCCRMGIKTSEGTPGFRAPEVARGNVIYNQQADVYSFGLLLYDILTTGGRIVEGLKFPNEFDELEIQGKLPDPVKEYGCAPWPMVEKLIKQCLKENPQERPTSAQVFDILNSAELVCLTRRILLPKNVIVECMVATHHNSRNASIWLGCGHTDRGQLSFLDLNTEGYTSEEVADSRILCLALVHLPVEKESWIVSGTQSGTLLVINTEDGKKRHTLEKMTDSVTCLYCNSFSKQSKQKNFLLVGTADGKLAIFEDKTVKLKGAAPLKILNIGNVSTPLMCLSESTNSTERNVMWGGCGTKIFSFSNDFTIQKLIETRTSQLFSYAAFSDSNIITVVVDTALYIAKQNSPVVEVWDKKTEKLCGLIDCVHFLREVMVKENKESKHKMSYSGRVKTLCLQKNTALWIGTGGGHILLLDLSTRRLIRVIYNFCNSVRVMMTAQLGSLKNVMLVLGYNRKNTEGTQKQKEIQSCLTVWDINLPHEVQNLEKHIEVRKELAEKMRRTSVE

IC50 | Compound
< 30 nM | COc1nc(Nc2cn(C(C)(C)C#N)nc2C)ncc1Br
< 30 nM | COc1nc(Nc2cn(C3C[C@@H]3C#N)nc2C2CC2)ncc1Br (single isomer, unassigned)
